Source: patent US20230077362A1 (CORTEVA AGRISCIENCE LLC, priority 2019, published 2023)
Read-outs that look alike come from different tables or passages of the source.

Tests used:
Assay type in all cases: in vivo
[1] = tested on: Beet Armyworm (Spodoptera exigua) ("BAW"), second instar larvae; experiment: Bioassay on beet armyworm (BAW), 128-well diet tray assay; conditions: Spodoptera exigua
Summary of the method: (§1)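 Read-out: percent larval mortality per well, averaged over 8 wells. Incubation 25° C., 14:10 L:D photoperiod, 5–7 days, trays sealed with clear adhesive cover.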

[2] = tested on: Cabbage Looper (Trichoplusia ni) ("CL"), second instar larvae; experiment: Bioassay on cabbage looper (CL), 128-well diet tray assay; conditions: Trichoplusia ni
Summary of the method: as §1

[3] = tested on: Green Peach Aphid ("GPA") (Myzus persicae), wingless adult and nymph stages; experiment: Bioassay on green peach aphid (GPA), foliar spray on infested cabbage seedlings; conditions: Myzus persicae, foliar, 72 h
Description: Certain molecules disclosed in this document were tested against GPA using procedures described in the following example. In the reporting of the results, the “GPA Rating Table” was used (See Table Section).
Cabbage seedlings grown in 3-inch pots, with 2-3 small (3-5 cm) true leaves, were used as test substrate. The seedlings were infested with 20-50 GPA (wingless adult and nymph stages) one day prior to chemical application. Four pots with individual seedlings were used for each treatment. Test compounds (2 mg) were dissolved in 2 mL of acetone/methanol (1:1) solvent, forming stock solutions of 1000 ppm test compound. […] A hand-held aspirator-type sprayer was used for spraying a solution to both sides of […] leaves until runoff. Reference plants (solvent check) were sprayed with the diluent only containing 20% by volume of acetone/methanol (1:1) solvent. Treated plants were held in a holding room for three days at approximately 25° C. and ambient relative humidity (RH) prior to grading. Evaluation was conducted by counting the number of live aphids per plant under a microscope.
Corrected % Control=100*(X−Y)/X • where • X=No. of live aphids on solvent check plants and • Y=No. of live aphids on treated plants
The results are indicated in the table entitled “Table ABC: Biological Results” (See Table Section).

[4] = read-out: BAW (Biological Results, rating)
[5] = read-out: CL (Biological Results, rating)
[6] = read-out: GPA (Biological Results, rating)

| SMILES | pest or weed control at 50 µg/cm2 [1, 4] [%] | pest or weed control at 50 µg/cm2 [2, 5] [%] | pest or weed control at 200 µg/mL [3, 6] [%] | pest or weed control at 50 µg/cm2 ([1]; read-out: BAW rating) [%] | pest or weed control at 50 µg/cm2 ([2]; read-out: CL rating) [%] | pest or weed control at 200 µg/mL ([3]; read-out: GPA rating) [%] |
| --- | --- | --- | --- | --- | --- | --- |
| Cc1ccc(C(F)(F)F)c(N2C(=O)C(Cl)S/C2=N\C(=O)NCC(F)c2ccc(-c3ncn(-c4ccc(OC(F)(F)F)cc4)n3)cc2)c1 (stereo not drawn) [Compound H7] | 50 to 100 | 50 to 100 | 0 to 80 | – | – | – |
| Cc1ccc(OCCC(F)(F)F)c(N2C(=O)CS/C2=N\C(=O)Nc2ccc(-c3ncn(-c4cccc(C(F)(F)F)c4)n3)cc2)c1 [Compound J326, (Z)-1-(3-(5-Methyl-2-(3,3,3-trifluoropropoxy)phenyl)-4-oxothiazolidin-2-ylidene)-3-(4-(1-(3-(trifluoromethyl)phenyl)-1H-1,2,4-triazol-3-yl)phenyl)urea] | 50 to 100 | 50 to 100 | 0 to 80 | – | – | – |
| Cc1cc(-c2ncn(-c3ccc(OC(F)(F)F)cc3)n2)ccc1NC(=O)/N=C1\SCC(=O)N1c1ccc(N(C)C)cc1C(C)C [Compound J113, (Z)-1-(3-(4-(Dimethylamino)-2-isopropylphenyl)-4-oxothiazolidin-2-ylidene)-3-(2-methyl-4-(1-(4-(trifluoromethoxy)phenyl)-1H-1,2,4-triazol-3-yl)phenyl)urea] | 50 to 100 | 50 to 100 | 0 to 80 | – | – | – |
| Cc1ccc(OCCC(F)(F)F)c(N2C(=O)CS/C2=N\C(=O)Nc2ccc(-c3ncn(-c4ccc(C(F)(F)F)cc4)n3)cc2)c1 [Compound J315, (Z)-1-(3-(5-Methyl-2-(3,3,3-trifluoropropoxy)phenyl)-4-oxothiazolidin-2-ylidene)-3-(4-(1-(4-(trifluoromethyl)phenyl)-1H-1,2,4-triazol-3-yl)phenyl)urea] | 50 to 100 | 50 to 100 | 0 to 80 | – | – | – |
| Cc1ccc(C(C)C)c(N2C(=O)CS/C2=N\C(=O)Nc2ccc(-c3ncn(-c4ccc(C#N)cc4)n3)cc2F)c1 [Compound J287, (Z)-1-(4-(1-(4-Cyanophenyl)-1H-1,2,4-triazol-3-yl)-2-fluorophenyl)-3-(3-(2-isopropyl-5-methylphenyl)-4-oxothiazolidin-2-ylidene)urea] | 50 to 100 | 50 to 100 | 0 to 80 | – | – | – |
| Cc1ccc(COCC(F)F)c(N2C(=O)CS/C2=N\C(=O)Nc2ccc(-c3cn(-c4ccc(S(=O)(=O)C(F)(F)F)cc4)cn3)cc2F)c1 [Compound J648, (Z)-1-(3-(2-((2,2-Difluoroethoxy)methyl)-5-methylphenyl)-4-oxothiazolidin-2-ylidene)-3-(2-fluoro-4-(1-(4-((trifluoromethyl)sulfonyl)phenyl)-1H-imidazol-4-yl)phenyl)urea] | – | – | – | 50 to 100 | 50 to 100 | 0 to 80 |
| CCN(C(C)=O)c1ccc(C(C)C)c(N2C(=O)CS/C2=N\C(=O)Nc2ccc(-c3ncn(-c4ccc(OC(F)(F)F)cc4)n3)cc2F)c1 [Compound J189, (Z)-N-Ethyl-N-(3-(2-(((2-fluoro-4-(1-(4-(trifluoromethoxy)phenyl)-1H-1,2,4-triazol-3-yl)phenyl)carbamoyl)imino)-4-oxothiazolidin-3-yl)-4-isopropylphenyl)acetamide] | 50 to 100 | 50 to 100 | 0 to 80 | – | – | – |
| COc1ccc(-n2cnc(-c3ccc(NC(=O)/N=C4\SCC(=O)N4c4cc(OC)ccc4C(C)C)c(F)c3)n2)cc1 [Compound J145, (Z)-1-(2-Fluoro-4-(1-(4-methoxyphenyl)-1H-1,2,4-triazol-3-yl)phenyl)-3-(3-(2-isopropyl-5-methoxyphenyl)-4-oxothiazolidin-2-ylidene)urea] | 50 to 100 | 50 to 100 | 0 to 80 | – | – | – |
| Cc1ccc(C(C)C)c(N2C(=O)CS/C2=N\C(=O)Nc2ccc(-c3ncn(-c4ccc(OC(F)(F)F)cc4)n3)cc2C)c1 [Compound J1, (Z)-1-(3-(2-isopropyl-5-methylphenyl)-4-oxothiazolidin-2-ylidene)-3-(2-methyl-4-(1-(4-(trifluoromethoxy)phenyl)-1H-1,2,4-triazol-3-yl)phenyl)urea] | 50 to 100 | 50 to 100 | 0 to 80 | – | – | – |
| COC(C)c1ccc(C)cc1N1C(=O)CS/C1=N\C(=O)Nc1ccc(-c2ncn(-c3ccc(SC(F)(F)F)cc3)n2)cc1Cl (stereo not drawn) [Compound J232, (Z)-1-(2-Chloro-4-(1-(4-((trifluoromethyl)thio)phenyl)-1H-1,2,4-triazol-3-yl)phenyl)-3-(3-(2-(1-methoxyethyl)-5-methylphenyl)-4-oxothiazolidin-2-ylidene)urea] | 50 to 100 | 50 to 100 | 0 to 80 | – | – | – |
| COC(C)c1ccc(C)cc1N1C(=O)CS/C1=N\C(=O)Nc1ccc(-c2ncn(-c3ccc(SC(F)(F)F)cc3)n2)cc1 (stereo not drawn) [Compound J350, (Z)-1-(3-(2-(1-methoxyethyl)-5-methylphenyl)-4-oxothiazolidin-2-ylidene)-3-(4-(1-(4-((trifluoromethyl)thio)phenyl)-1H-1,2,4-triazol-3-yl)phenyl)urea] | 50 to 100 | 50 to 100 | 0 to 80 | – | – | – |
| COc1ccc(CC(F)(F)F)c(N2C(=O)CS/C2=N\C(=O)NCC(F)c2ccc(-c3ncn(-c4ccc(OC(F)(F)F)cc4)n3)cc2)c1 (stereo not drawn) [Compound H14] | 50 to 100 | 50 to 100 | 0 to 80 | – | – | – |
| Cc1ccc(COCC(F)(F)F)c(N2C(=O)CS/C2=N\C(=O)Nc2ccc(-c3ncn(-c4ccc(OC(F)(F)F)cc4)n3)cc2F)c1 [Compound J123, (Z)-1-(2-fluoro-4-(1-(4-(trifluoromethoxy)phenyl)-1H-1,2,4-triazol-3-yl)phenyl)-3-(3-(5-methyl-2-((2,2,2-trifluoroethoxy)methyl)phenyl)-4-oxothiazolidin-2-ylidene)urea] | 50 to 100 | 50 to 100 | 0 to 80 | – | – | – |
| COC(C)c1ccc(C)cc1N1C(=O)CS/C1=N\C(=O)Nc1ccc(-c2ncn(-c3cccc(C(F)(F)F)c3)n2)cc1F (stereo not drawn) [Compound J119, (Z)-1-(2-Fluoro-4-(1-(3-(trifluoromethyl)phenyl)-1H-1,2,4-triazol-3-yl)phenyl)-3-(3-(2-(1-methoxyethyl)-5-methylphenyl)-4-oxothiazolidin-2-ylidene)urea] | 50 to 100 | 50 to 100 | 0 to 80 | – | – | – |
| Cc1ccc(OCCC(F)(F)F)c(N2C(=O)CS/C2=N\C(=O)Nc2ccc(-c3ncn(-c4ccc(OC(F)(F)F)cc4)n3)cc2)c1 [Compound J316, (Z)-1-(3-(5-Methyl-2-(3,3,3-trifluoropropoxy)phenyl)-4-oxothiazolidin-2-ylidene)-3-(4-(1-(4-(trifluoromethoxy)phenyl)-1H-1,2,4-triazol-3-yl)phenyl)urea] | 50 to 100 | 50 to 100 | 0 to 80 | – | – | – |
| CC(C)c1ccc(N(C)C)cc1N1C(=O)CS/C1=N\C(=O)Nc1ccc(-c2ncn(-c3ccc(OC(F)(F)F)cc3)n2)cc1 [Compound J319, (Z)-1-(3-(5-(Dimethylamino)-2-isopropylphenyl)-4-oxothiazolidin-2-ylidene)-3-(4-(1-(4-(trifluoromethoxy)phenyl)-1H-1,2,4-triazol-3-yl)phenyl)urea] | 50 to 100 | 50 to 100 | 0 to 80 | – | – | – |
| Cc1cc(-c2ncn(-c3cccc(OC(F)(F)F)c3)n2)ccc1NC(=O)/N=C1\SCC(=O)N1c1cc(N(C)C)ccc1C(C)C [Compound J137, (Z)-1-(3-(5-(Dimethylamino)-2-isopropylphenyl)-4-oxothiazolidin-2-ylidene)-3-(2-methyl-4-(1-(3-(trifluoromethoxy)phenyl)-1H-1,2,4-triazol-3-yl)phenyl)urea] | 50 to 100 | 50 to 100 | 0 to 80 | – | – | – |
| CC(C)c1ccc(N(C)C)cc1N1C(=O)CS/C1=N\C(=O)Nc1ccc(-c2ncn(-c3ccc(OC(F)(F)F)cc3)n2)cc1F [Compound J318, (Z)-1-(3-(5-(Dimethylamino)-2-isopropylphenyl)-4-oxothiazolidin-2-ylidene)-3-(2-fluoro-4-(1-(4-(trifluoromethoxy)phenyl)-1H-1,2,4-triazol-3-yl)phenyl)urea] | 50 to 100 | 50 to 100 | 0 to 80 | – | – | – |
| COc1ccc(C(C)C)c(N2C(=O)CS/C2=N\C(=O)Nc2ccc(-c3ncn(-c4cccc(C(F)(F)F)c4)n3)cc2)c1 [Compound J324, (Z)-1-(3-(2-Isopropyl-5-methoxyphenyl)-4-oxothiazolidin-2-ylidene)-3-(4-(1-(3-(trifluoromethyl)phenyl)-1H-1,2,4-triazol-3-yl)phenyl)urea] | 50 to 100 | 50 to 100 | 0 to 80 | – | – | – |
